Experimental data as given in patent publication US4782072A, “Thiadiazole derivative” (Reckitt & Colman Products Limited, priority 1986, dated 1988).

What was measured:
[1] = electroshock test (MES), mouse; type: in vivo
Protocol: (§1) The pharmacological activity of the compound of the invention has been determined according to the following procedures. Its anticonvulsant activity was determined in the metrazol antagonism test in both mice and rats (MMS) (Soaje-Echaque E; Lim RKS, J Pharmac Exp Ther 1962, 138, 224; Desmedt LKC; Niemegeers CJE; Lewi PJ; Janssen PAJ, Arzneim-Forsch (Drug Res), 1976, 26, 1592) and the electroshock test (MES) (Perry JK; Tower DB; Woodbury DM; Walter RD, "Experimental Models of Epilepsy", editor Purpura DP; Raven Press: New York, 1972, 434).

[2] = electroshock test (MES), rat; type: in vivo; settings: read-out: ED50 (limits) RAT MES
Protocol: as §1

[3] = metrazol antagonism test (MMS), mouse; type: in vivo; settings: read-out: ED50 (limits) MOUSE MMS
Protocol: as §1

[4] = anticonvulsant tests (MES and MMS), rat and mouse, summary; type: in vivo; settings: for anticonvulsant activity: electrically and chemically induced seizures
Protocol: as §1

in vivo = settings: for TD50 ip at time of peak effect / TD50 po at 1 hour: rotarod; for TD50 ip at time of peak effect: at time of peak anticonvulsant effect; for TD50 po at 1 hour: dose at which 50% of trained animals fall off the rotarod
Protocol: An assessment of the neurotoxicity of the compound was carried out in mice using the rotarod test (Collier, HOJ; Fieller, EC; Hall, RA, Analyst, 1949, 74, 592).
^a Dose at which 50% of trained animals fall off the rotarod.
^b Protective index is calculated by dividing the TD50 (ip at
time of peak anticonvulsant effect) by the ED50 under the same

[5] = metrazol antagonism test (MMS), rat; type: in vivo; settings: read-out: ED50 (limits) RAT MMS
Protocol: as §1

[6] = ip, mouse, MES, i.p., at time of peak effect, read-out: ED50 (limits) MES at time of peak effect
[7] = mouse, MES, oral, t=1 hour, read-out: ED50 (limits) MOUSE MES
[8] = mouse, in vivo, ip, protective index (PI)

Row | Compound | ED50 [1, 6] | Time of peak effect ([1]; mouse, MES, i.p.) | ED50 [1, 7] | ED50 ([2]; rat, MES, oral, t=1 hour) | ED50 ([3]; mouse, MMS, oral, t=1 hour) | selectivity ratio (in vivo; [8]) | TD50 ip at time of peak effect (in vivo; ip) | TD50 po at 1 hour (in vivo) | ED50 ([5]; rat, MMS, oral, t=1 hour) | further results
1 | NCc1nnc(-c2ccccc2-c2ccccc2)s1 [Example, 2-Aminomethyl-5-(2-biphenylyl)-1,3,4-thiadiazole] | 7 mg/kg | 10 min | 22 mg/kg | 10 mg/kg | 20 mg/kg | 6.5 | 45(23-68) mg/kg | 318(230-471) mg/kg | 9 mg/kg | rate of absorption ([4]; inferred from time of peak effect, ip and oral, in words): very rapid rate of absorption; time of peak effect by both methods of administration ([4]; intraperitoneal and oral routes, after dosing): ten and twenty; anticonvulsant activity ([4]; rat and mouse, in words, listed as compound of Formula 1): potent anticonvulsant activity; anticonvulsant activity ([4]; rat and mouse, in words, listed as the compound): potent anticonvulsant, blocking both electrically and chemically induced seizures; effectiveness by intraperitoneal and oral routes ([4]; rat and mouse, in words): effective by both the intraperitoneal and oral routes; potency relative to established anticonvulsant drugs ([4]; rat and mouse, in words): comparable with established anticonvulsant drugs
2 | CCC1(c2ccccc2)C(=O)NC(=O)NC1=O [phenobarbital] | – | 30 min | – | – | – | – | 86(54-140) mg/kg | 68(52-92) mg/kg | – | ED50 ([1]; Mus musculus, ip, read-out: ED50 (limits) MES at time of peak effect): 18 mg/kg; ED50 ([1]; Mus musculus, po, 1 h, read-out: ED50 (limits) MOUSE MES): 12 mg/kg; ED50 ([2]; Rattus norvegicus, po, 1 h): 9 mg/kg; ED50 ([3]; Mus musculus, po, 1 h): 4 mg/kg; ED50 ([5]; Rattus norvegicus, po, 1 h): 4 mg/kg
3 | O=C1NC(=O)C(c2ccccc2)(c2ccccc2)N1 [phenytoin] | 8 mg/kg | 60 min | 8 mg/kg | 14 mg/kg | 8 mg/kg | – | 56(27-74) mg/kg | 216(154-239) mg/kg | 12 mg/kg | selectivity ratio (in vivo; in vivo, ip): 7
4 | NC(=O)N1c2ccccc2C=Cc2ccccc21 [carbamazepine] | 6 mg/kg | 20 min | 20 mg/kg | 4 mg/kg | 11 mg/kg | 11 | 67(29-108) mg/kg | 166(104-282) mg/kg | 3 mg/kg | protective index (PI) (in vivo; in vivo, ip): 11.1
